From publication PMC4867112 (Biochemistry, 2016) come the findings set out here.

In data set [1] the target is T1, DREAM(Δ64) (Mus musculus, UniProt Q9QXT8).
T1 sequence (Q9QXT8 65-256): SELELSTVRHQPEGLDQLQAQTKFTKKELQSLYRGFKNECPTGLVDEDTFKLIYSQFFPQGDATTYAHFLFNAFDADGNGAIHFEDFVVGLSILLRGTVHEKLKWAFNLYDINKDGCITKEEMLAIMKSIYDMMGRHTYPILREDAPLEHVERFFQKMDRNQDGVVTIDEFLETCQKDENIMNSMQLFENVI
The data set is described as follows: Tb3+ luminescence decay titration. In kind it is binding.

Data set [2] concerns the molecule itself. Kind of data set: fluorescence anisotropy decay.

For orientation: Kd means the constant that tells how readily two partners part at equilibrium. The low end stands for tighter binding, the high end for weaker binding. Usually stoichiometry N stands for a count of units in the complex or per binding partner.

With `O=C(Nc1cc(C(F)(F)F)cc(C(F)(F)F)c1)Nc1c(Br)cc(Br)cc1-c1nn[nH]n1` [NS5806, 1-[2,4-dibromo-6-(1H-tetrazol-5-yl)-phenyl]-3-(3,5-bis-trifluoromethyl-phenyl)urea], in data set [1], the Kd was around 37 µM.

B1: DREAM(Δ64), mouse DREAM (downstream regulatory element antagonist modulator) construct lacking residues 1–64 (domain or fragment, UniProt Q9QXT8 65-256, looked up)
chain: T1 sequence (Q9QXT8 65-256)
B1: the “stoichiometry N” value in data set [2] worked out at 2.
